In patent publication US20250205259A1, “CLASS OF 7-((FIVE-MEMBERED HETEROCYCLIC)METHYL)-8-CARBOXYLIC ACID-BENZO CYCLIC BORATE DERIVATIVES AND USES THEREOF” (priority 2022, published 2025):
Read-outs that look alike come from different tables or passages of the source.

How the values were obtained:
Format in all cases: biochemical
OXA-48 = OXA-48 (Klebsiella pneumoniae, UniProt Q6XEC0); test: Inhibitory activity on SBL, fluorescent substrate FC-5; settings: for inhibitory activity on OXA-48 compared to avibactam: comparison in words
OXA-48, sequence (Q6XEC0 23-265 limits assumed): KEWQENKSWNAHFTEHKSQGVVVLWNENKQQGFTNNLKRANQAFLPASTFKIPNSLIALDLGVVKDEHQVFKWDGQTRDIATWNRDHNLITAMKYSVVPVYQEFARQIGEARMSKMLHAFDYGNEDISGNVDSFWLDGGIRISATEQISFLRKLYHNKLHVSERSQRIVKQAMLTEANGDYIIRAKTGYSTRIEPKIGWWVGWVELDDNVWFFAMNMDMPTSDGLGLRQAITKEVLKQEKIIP

CTX-M-14 = CTX-M-14 (Escherichia coli, UniProt Q9L5C7); test: as above; settings: for IC50: read-out: Inhibitory activity on SBL CTX-M-14 (IC50 class); for inhibitory activity on CTX-M-14 compared to avibactam: comparison in words
CTX-M-14, sequence (Q9L5C7 entry or part of it): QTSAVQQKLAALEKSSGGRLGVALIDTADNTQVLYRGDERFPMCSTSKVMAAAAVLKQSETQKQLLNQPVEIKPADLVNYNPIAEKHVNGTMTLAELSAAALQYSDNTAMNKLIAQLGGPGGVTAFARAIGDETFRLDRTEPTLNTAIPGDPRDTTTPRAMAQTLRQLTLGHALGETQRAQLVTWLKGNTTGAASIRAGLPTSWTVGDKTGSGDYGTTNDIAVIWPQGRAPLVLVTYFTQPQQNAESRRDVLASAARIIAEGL

KPC-2 = KPC-2 (Klebsiella pneumoniae, UniProt Q9F663); test: as above; settings: for inhibitory activity on KPC-2 compared to avibactam: comparison in words
KPC-2, sequence (Q9F663 25-293 limits assumed): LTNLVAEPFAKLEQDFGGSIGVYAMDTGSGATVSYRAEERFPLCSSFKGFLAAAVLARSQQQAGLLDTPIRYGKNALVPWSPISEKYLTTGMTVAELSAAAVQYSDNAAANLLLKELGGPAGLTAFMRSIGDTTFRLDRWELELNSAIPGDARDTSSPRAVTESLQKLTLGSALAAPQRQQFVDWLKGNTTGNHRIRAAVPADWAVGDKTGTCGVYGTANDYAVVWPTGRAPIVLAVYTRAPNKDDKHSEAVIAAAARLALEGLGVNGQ

TEM-1 = TEM-1 (Escherichia coli, UniProt P62593); test: as above; settings: for IC50: read-out: Inhibitory activity on SBL TEM-1 (IC50 class); for inhibitory activity on TEM-1 compared to avibactam: comparison in words
TEM-1, sequence (P62593 24-286 limits assumed): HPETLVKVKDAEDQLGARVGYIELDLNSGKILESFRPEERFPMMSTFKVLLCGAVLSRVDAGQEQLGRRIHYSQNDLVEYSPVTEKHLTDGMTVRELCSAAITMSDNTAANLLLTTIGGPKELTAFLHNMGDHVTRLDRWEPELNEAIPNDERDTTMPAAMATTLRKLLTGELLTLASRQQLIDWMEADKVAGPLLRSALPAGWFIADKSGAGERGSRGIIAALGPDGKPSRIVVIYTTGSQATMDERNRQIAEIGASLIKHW

VIM-2 = VIM-2 (Escherichia coli, UniProt Q5U7L7); test: Inhibitory activity on MBL, fluorescent substrate FC-5; settings: read-out: Inhibitory activity on MBL VIM-2 (IC50 class)
NDM-1 = NDM-1 (Klebsiella pneumoniae, UniProt C7C422); test: as above
NDM-1, sequence (C7C422 29-270 limits assumed): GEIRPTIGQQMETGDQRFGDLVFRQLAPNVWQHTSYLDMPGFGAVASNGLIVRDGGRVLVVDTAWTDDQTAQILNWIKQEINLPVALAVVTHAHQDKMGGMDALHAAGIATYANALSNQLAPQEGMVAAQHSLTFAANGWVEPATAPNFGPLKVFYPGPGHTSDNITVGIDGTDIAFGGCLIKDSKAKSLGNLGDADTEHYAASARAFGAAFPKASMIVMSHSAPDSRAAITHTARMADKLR

IMP-1 = IMP-1 (Serratia marcescens, UniProt P52699); test: as above
IMP-1, sequence (P52699 19-246 limits assumed): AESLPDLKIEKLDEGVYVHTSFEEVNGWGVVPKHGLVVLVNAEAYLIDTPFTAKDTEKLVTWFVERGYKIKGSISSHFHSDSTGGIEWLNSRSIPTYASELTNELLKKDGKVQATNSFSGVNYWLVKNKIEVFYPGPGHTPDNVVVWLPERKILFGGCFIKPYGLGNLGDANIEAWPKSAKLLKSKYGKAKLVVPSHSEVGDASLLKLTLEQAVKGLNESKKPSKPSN

NDM-5 = NDM-5 (Klebsiella pneumoniae, UniProt C7C422, M154L/V88L); test: as above
NDM-5, sequence (C7C422 29-270 V88L/M154L): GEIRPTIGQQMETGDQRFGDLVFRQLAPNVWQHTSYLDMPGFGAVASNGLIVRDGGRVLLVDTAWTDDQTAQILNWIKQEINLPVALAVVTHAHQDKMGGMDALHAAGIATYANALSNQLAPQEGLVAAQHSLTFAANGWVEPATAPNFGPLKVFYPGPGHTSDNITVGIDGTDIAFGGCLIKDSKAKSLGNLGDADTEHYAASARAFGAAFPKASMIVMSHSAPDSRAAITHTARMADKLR

VIM-1 = VIM-1 (Pseudomonas aeruginosa, UniProt A0A0F7KYQ8); test: as above
[1] = read-out: Inhibitory activity on SBL OXA-48 (IC50 class)
[2] = read-out: Inhibitory activity on SBL KPC-2 (IC50 class)
[3] = read-out: Inhibitory activity on MBL NDM-1 (IC50 class)
[4] = read-out: inhibitory activity at a nanomolar-level on NDM-1
[5] = read-out: Inhibitory activity on MBL IMP-1 (IC50 class)
[6] = read-out: Inhibitory activity on MBL NDM-5 (IC50 class)
[7] = read-out: inhibitory activity at a nanomolar-level on NDM-5
[8] = read-out: Inhibitory activity on MBL VIM-1 (IC50 class)
[9] = IMP-1 and/or IMP-4, read-out: inhibitory activity at a nanomolar-level on IMP-1 and/or IMP-4
[10] = VIM-1 and/or VIM-2, read-out: inhibitory activity at a nanomolar-level on VIM-1 and/or VIM-2
[11] = salts, read-out: inhibitory activity at a nanomolar-level on OXA-48
[12] = salts, read-out: inhibitory activity at a nanomolar-level on KPC-2

Compound | IC50 (OXA-48; [1]) [nM] | IC50 (CTX-M-14) [nM] | IC50 (KPC-2; [2]) [nM] | IC50 (TEM-1) [nM] | IC50 (VIM-2) [nM] | IC50 (NDM-1; [3]) [nM] | IC50 (IMP-1; [5]) [nM] | IC50 (NDM-5; [6]) [nM] | IC50 (VIM-1; [8]) [nM] | IC50 (KPC-2; [12]) [nM] | also measured
O=C(O)c1c(Cn2ncc3c2CNC3)ccc2c1OB(O)CC2 [Compound 66] | < 10 | 10 to 1000 | < 10 | 10 to 1000 |  |  |  |  |  |  | 
O=C(O)c1c(Cn2cc(C3CNC3)nn2)ccc2c1OB(O)CC2 [Compound 47] | 10 to 1000 | 10 to 1000 | 10 to 1000 | 10 to 1000 | 1000 to 100000 | 10 to 1000 | 1000 to 100000 | 1000 to 100000 | 1000 to 100000 |  | IC50 (NDM-1; [4]): < 1000 nM; IC50 (NDM-5; [7]): < 1000 nM
NCc1ccc(-c2cn(Cc3ccc4c(c3C(=O)O)OB(O)CC4)nn2)cc1 [Compound 63] | < 10 | 10 to 1000 | < 10 | 10 to 1000 | 10 to 1000 | 10 to 1000 | 10 to 1000 | 10 to 1000 | 10 to 1000 |  | inhibitory activity on OXA-48 compared to avibactam (OXA-48): better or comparable; IC50 (NDM-1; [4]): < 1000 nM; IC50 (IMP-1; [9]): < 1000 nM; inhibitory activity on CTX-M-14 compared to avibactam (CTX-M-14): better or comparable; IC50 (NDM-5; [7]): < 1000 nM; IC50 (VIM-1; [10]): < 1000 nM; inhibitory activity on KPC-2 compared to avibactam (KPC-2): better or comparable; inhibitory activity on TEM-1 compared to avibactam (TEM-1): better or comparable
NCCc1cn(Cc2ccc3c(c2C(=O)O)OB(O)CC3)nn1 [Compound 8] | 10 to 1000 | 10 to 1000 | 10 to 1000 | 10 to 1000 | 10 to 1000 | 1000 to 100000 | 1000 to 100000 | 10 to 1000 | 1000 to 100000 |  | IC50 (VIM-1; [10]): < 1000 nM
Nc1ccc(-c2cn(Cc3ccc4c(c3C(=O)O)OB(O)CC4)nn2)cc1 [Compound 59] | < 10 | < 10 | < 10 | < 10 | 10 to 1000 | 10 to 1000 | 10 to 1000 | 10 to 1000 | 10 to 1000 |  | inhibitory activity on OXA-48 compared to avibactam (OXA-48): better or comparable; IC50 (NDM-1; [4]): < 1000 nM; IC50 (IMP-1; [9]): < 1000 nM; inhibitory activity on CTX-M-14 compared to avibactam (CTX-M-14): better or comparable; IC50 (NDM-5; [7]): < 1000 nM; IC50 (VIM-1; [10]): < 1000 nM; inhibitory activity on KPC-2 compared to avibactam (KPC-2): better or comparable; inhibitory activity on TEM-1 compared to avibactam (TEM-1): better or comparable
O=C(O)c1c(Cn2cc3c(n2)CNC3)ccc2c1OB(O)CC2 [Compound 56-Na] | < 10 | 10 to 1000 | < 10 | 10 to 1000 | 10 to 1000 | 10 to 1000 | 1000 to 100000 |  | 10 to 1000 | < 10 | IC50 (OXA-48; [11]): < 10 nM
O=C(O)c1c(Cn2ncc3c2CNC3)ccc2c1OB(O)CC2 [66-oxalic acid] |  |  |  |  |  |  |  |  |  | < 10 | IC50 (OXA-48; [11]): < 10 nM
NC1(c2cn(Cc3ccc4c(c3C(=O)O)OB(O)CC4)nn2)CC1 [Compound 41] | 10 to 1000 | 10 to 1000 | < 10 | 10 to 1000 | 10 to 1000 |  |  |  |  |  | 
NCCc1cnn(Cc2ccc3c(c2C(=O)O)OB(O)CC3)c1 [43-maleic acid] |  |  |  |  |  |  |  |  |  | < 10 | 
C[C@]1(Cn2ccnn2)[C@H](C(=O)O)N2C(=O)C[C@H]2S1(=O)=O [Tazobactam, reference compound] |  |  | 1000 to 100000 |  | > 100000 | > 100000 | > 100000 | > 100000 |  |  | IC50 (OXA-48; Inhibitory activity on SBL OXA-48 (IC50 class)): 1000 to 100000 nM; IC50 (VIM-1; Inhibitory activity on MBL VIM-1 (IC50 class)): > 100000 nM
NCc1cnn(Cc2ccc3c(c2C(=O)O)OB(O)CC3)c1 [21-phosphoric acid] |  |  |  |  |  |  |  |  |  | < 10 | IC50 (OXA-48; [11]): < 10 nM
N=C(N)NCc1ccc(-c2cn(Cc3ccc4c(c3C(=O)O)OB(O)CC4)nn2)cc1 [Compound 64] | < 10 |  | < 10 |  |  |  |  |  |  |  | inhibitory activity on OXA-48 compared to avibactam (OXA-48): better or comparable; inhibitory activity on CTX-M-14 compared to avibactam (CTX-M-14): better or comparable; inhibitory activity on KPC-2 compared to avibactam (KPC-2): better or comparable; inhibitory activity on TEM-1 compared to avibactam (TEM-1): better or comparable
N=C(N)N1CC(c2cn(Cc3ccc4c(c3C(=O)O)OB(O)CC4)nn2)C1 [Compound 49-Na] |  |  |  |  |  |  |  |  |  | < 10 | 
NCCc1ccc(-c2cn(Cc3ccc4c(c3C(=O)O)OB(O)CC4)nn2)cc1 [63-tartaric acid] |  |  | < 10 |  |  |  |  |  |  | < 10 | 
NCc1cnn(Cc2ccc3c(c2C(=O)O)OB(O)CC3)c1 [Compound 21] | < 10 |  | < 10 |  |  |  |  |  |  |  | 
